# Reference: patent publication US20230141198A1, “PYRAZOL[…]” (THE KITASATO INSTITUTE, priority 2019, published 2023)
# How the values were obtained:
# Type in all cases: cell-based
# [1] = target: T1, human opioid δ receptor (Homo sapiens, UniProt P41143); experiment: Opioid receptor function test (agonist activity, Lance Ultra cAMP kit), δ receptor; details: for Emax: maximum reaction relative to control drug SNC 80 taken as 100%
# T1 construct: host or cells: CHO cells
# Excerpt: (§1) Opioid Receptor Function Test
# (§2) Functional activity of the compound provided by the present invention on μ, δ, and κ opioid receptors was examined.
# (§3) Method: Using a Lance Ultra cAMP kit (Perkin Elmer), the functional activity was examined by a predetermined method. In evaluation of agonist activity, CHO cells expressing each of human opioid receptors (δ, μ, and κ: accession numbers and catalog numbers are described below) were reacted with a test compound in an assay buffer (1× HBSS, […], pH 7.4, […] isobutylmethylxanthine (IBMX), 7.5% BSA) in the presence of 10 μM forskolin for 30 minutes. Subsequently, a cAMP detection reagent in the kit was added. One hour later, time-resolved fluorescence measurement was performed using an EnVision plate reader (Perkin Elmer). The test compound and each control drug (δ: SNC 80, μ: DAMGO, κ: U-69593) were evaluated in a concentration range of 10^−12 to 10^−5 M. A dose reaction curve of the test compound was determined from a fluorescence value at 665 nm, and an EC50 value and an Emax value were calculated. The Emax value was determined as a ratio of a maximum reaction of the test compound when a maximum reaction of each control drug was taken as 100%.
# [2] = target: T2, human opioid κ receptor (Homo sapiens, UniProt P41145); experiment: Opioid receptor function test (agonist activity, Lance Ultra cAMP kit), κ receptor; details: for Emax: maximum reaction relative to control drug U-69593 taken as 100%
# T2 construct: host or cells: CHO cells
# Excerpt: as §1, §2, §3
# [3] = target: T3, human opioid μ receptor (Homo sapiens, UniProt P35372); experiment: Opioid receptor function test (agonist activity, Lance Ultra cAMP kit), μ receptor; details: for Emax: maximum reaction relative to control drug DAMGO taken as 100%
# T3 construct: host or cells: CHO cells
# Excerpt: as §1, §2, §3
# T2 sequence (P41145 whole entry): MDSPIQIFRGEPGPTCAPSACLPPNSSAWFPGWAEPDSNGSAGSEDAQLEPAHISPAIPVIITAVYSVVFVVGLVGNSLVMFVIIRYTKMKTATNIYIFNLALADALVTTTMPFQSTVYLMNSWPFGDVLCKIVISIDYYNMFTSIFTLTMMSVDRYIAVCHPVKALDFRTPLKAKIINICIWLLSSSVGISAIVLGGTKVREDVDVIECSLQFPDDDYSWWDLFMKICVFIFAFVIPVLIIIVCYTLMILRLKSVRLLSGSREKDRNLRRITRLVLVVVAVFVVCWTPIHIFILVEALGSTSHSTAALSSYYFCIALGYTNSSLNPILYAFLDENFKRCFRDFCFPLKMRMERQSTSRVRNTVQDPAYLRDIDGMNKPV
# T3 sequence (P35372 whole entry): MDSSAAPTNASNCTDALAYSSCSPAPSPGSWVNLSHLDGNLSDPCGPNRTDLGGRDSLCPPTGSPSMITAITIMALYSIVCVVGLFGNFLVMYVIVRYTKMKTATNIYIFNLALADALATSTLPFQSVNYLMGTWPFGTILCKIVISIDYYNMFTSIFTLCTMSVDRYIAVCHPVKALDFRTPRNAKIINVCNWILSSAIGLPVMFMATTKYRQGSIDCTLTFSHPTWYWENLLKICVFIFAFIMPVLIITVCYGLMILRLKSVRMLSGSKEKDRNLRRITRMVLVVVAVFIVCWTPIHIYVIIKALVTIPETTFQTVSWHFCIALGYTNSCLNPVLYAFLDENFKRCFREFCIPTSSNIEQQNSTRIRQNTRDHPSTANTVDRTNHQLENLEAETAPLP
# T1 sequence (P41143 whole entry): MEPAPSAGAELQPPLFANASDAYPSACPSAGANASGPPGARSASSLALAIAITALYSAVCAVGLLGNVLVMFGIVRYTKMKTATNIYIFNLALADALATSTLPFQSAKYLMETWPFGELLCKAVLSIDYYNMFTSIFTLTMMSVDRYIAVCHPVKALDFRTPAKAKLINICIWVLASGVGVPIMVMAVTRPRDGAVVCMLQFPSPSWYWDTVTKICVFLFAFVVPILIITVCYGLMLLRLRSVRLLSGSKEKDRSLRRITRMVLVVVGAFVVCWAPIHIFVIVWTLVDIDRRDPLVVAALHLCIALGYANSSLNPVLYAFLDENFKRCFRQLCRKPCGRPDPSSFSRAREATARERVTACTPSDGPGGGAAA
Compound,EC50 [1],Emax [1],EC50 [2],Emax [2],EC50 [3],Emax [3]
"Cc1nn(-c2ccccc2)c2c1C[C@@]1(O)[C@H]3Cc4ccc(O)cc4[C@@]1(CCN3CC1CC1)C2 [Compound 21, (6R,6aS,11aR)-14-(cyclopropylmethyl) methyl-10-phenyl-5,6,10,11-tetrahydro-6,11a-(epiminoethano)naphtho[2,1-f]indazole-2,6a(7H)-diol]",0.76 nM,81%,,,,
"Cc1nn(C(=O)c2ccccc2)c2c1C[C@@]1(O)[C@H]3Cc4ccc(O)cc4[C@@]1(CCN3CC1CC1)C2 [Compound 36, ((6R,6aS,11aR)-14-(cyclopropylmethyl)-2,6a-dihydroxy-8-methyl-6,6a,7,11-tetrahydro-6,11a-(epiminoethano)naphtho[2,1-f]indazol-10(5H)-yl)(phenyl)methanone]",3.4 nM,65%,,,,
"Cc1c2c(nn1-c1ccccc1)C[C@]13CCN(CC4CC4)[C@H](Cc4ccc(O)cc41)[C@]3(O)C2 [Compound 20, (6R,6aS,11aR)-14-(cyclopropylmethyl)-8-methyl-9-phenyl-5,6,9,11-tetrahydro-6,11a-(epiminoethano)naphtho[2,1-f]indazole-2,6a(7H)-diol]",0.89 nM,86%,8.7 nM,12%,8.1 nM,10%
"Cc1nn(C2CCSCC2)c2c1C[C@@]1(O)[C@H]3Cc4ccc(O)cc4[C@@]1(CCN3CC1CC1)C2 [Compound 89, (6R,6aS,11aR)-14-(cyclopropylmethyl)-8-methyl-10-(tetrahydro-2H-thiopyran-4-yl)-5,6,10,11-tetrahydro-6,11a-(epiminoethano)naphtho[2,1-f]indazole-2,6a(7H)-diol]",0.069 nM,112%,,,,
"Cc1nn(C2CCCCC2)c2c1C[C@@]1(O)[C@H]3Cc4ccc(O)cc4[C@@]1(CCN3CC1CC1)C2 [Compound 32, (6R,6aS,11aR)-10-cyclohexyl-14-(cyclopropylmethyl)-8-methyl-5,6,10,11-tetrahydro-6,11a-(epiminoethano)naphtho[2,1-f]indazole-2,6a(7H)-diol]",0.089 nM,111%,,,,
"Cc1nn(C2CCOCC2)c2c1C[C@@]1(O)[C@H]3Cc4ccc(O)cc4[C@@]1(CCN3CC1CC1)C2 [Compound 88, (6R,6aS,11aR)-14-(cyclopropylmethyl)-8-methyl-10-(tetrahydro-2H-pyran-4-yl)-5,6,10,11-tetrahydro-6,11a-(epiminoethano)naphtho[2,1-f]indazole-2,6a(7H)-diol]",0.086 nM,113%,,,,
"Cc1nn(-c2ccccc2)c2c1C[C@@]1(O)[C@H]3Cc4ccc(O)cc4[C@@]1(CCN3C)C2 [Compound 61, (6R,6aS,11aR)-8,14-dimethyl-10-phenyl-5,6,10,11-tetrahydro-6,11a-(epiminoethano)naphtho[2,1-f]indazole-2,6a(7H)-diol]",15 nM,91%,1030 nM,14%,257 nM,63%
"Cc1nn(-c2cccnc2)c2c1C[C@@]1(O)[C@H]3Cc4ccc(O)cc4[C@@]1(CCN3CC1CC1)C2 [Compound 49, (6R,6aS,11aR)-14-(cyclopropylmethyl)-8-methyl-10-(pyridin-3-yl)-5,6,10,11-tetrahydro-6,11a-(epiminoethano)naphtho[2,1-f]indazole-2,6a(7H)-diol]",0.5 nM,73%,,,,
"Cc1c2c(nn1C1CCSCC1)C[C@]13CCN(CC4CC4)[C@H](Cc4ccc(O)cc41)[C@]3(O)C2 [Compound 90, (6R,6aS,11aR)-14-(cyclopropylmethyl)-8-methyl-9-(tetrahydro-2H-thiopyran-4-yl)-5,6,9,11-tetrahydro-6,11a-(epiminoethano)naphtho[2,1-f]indazole-2,6a(7H)-diol]",0.092 nM,116%,8.1 nM,15%,,
"Cc1nn(-c2ccncc2)c2c1C[C@@]1(O)[C@H]3Cc4ccc(O)cc4[C@@]1(CCN3CC1CC1)C2 [Compound 28, (6R,6aS,11aR)-14-(cyclopropylmethyl)-8-methyl-10-(pyridin-4-yl)-5,6,10,11-tetrahydro-6,11a-(epiminoethano)naphtho[2,1-f]indazole-2,6a(7H)-diol]",0.33 nM,101%,58 nM,15%,,
"Cc1c2c(nn1C1CCC1)C[C@]13CCN(CC4CC4)[C@H](Cc4ccc(O)cc41)[C@]3(O)C2 [Compound 85, (6R,6aS,11aR)-9-cyclobutyl-14-(cyclopropylmethyl) methyl-5,6,9,11-tetrahydro-6,11a-(epiminoethano)naphtho[2,1-f]indazole-2,6a(7H)-diol]",0.092 nM,104%,17 nM,25%,16 nM,26%
"Cc1nn(CC2CC2)c2c1C[C@@]1(O)[C@H]3Cc4ccc(O)cc4[C@@]1(CCN3CC1CC1)C2 [Compound 45, (6R,6aS,11aR)-10,14-bis(cyclopropylmethyl)-8-methyl-5,6,10,11-tetrahydro-6,11a-(epiminoethano)naphtho[2,1-f]indazole-2,6a(7H)-diol]",0.75 nM,72%,,,,
"Cc1c2c(nn1CC1CCCCC1)C[C@]13CCN(CC4CC4)[C@H](Cc4ccc(O)cc41)[C@]3(O)C2 [Compound 42, (6R,6aS,11aR)-9-(cyclohexylmethyl)-14-(cyclopropylmethyl)-8-methyl-5,6,9,11-tetrahydro-6,11a-(epiminoethano)naphtho[2,1-f]indazole-2,6a(7H)-diol]",1 nM,90%,,,,
"Cc1nn(C2CCN(C)CC2)c2c1C[C@@]1(O)[C@H]3Cc4ccc(O)cc4[C@@]1(CCN3CC1CC1)C2 [Compound 91, (6R,6aS,11aR)-14-(cyclopropylmethyl)-8-methyl-10-(1-methylpiperidin-4-yl)-5,6,10,11-tetrahydro-6,11a-(epiminoethano)naphtho[2,1-f]indazole-2,6a(7H)-diol]",0.23 nM,112%,15 nM,25%,32 nM,12%
"O=c1c2c([nH]n1-c1ccccc1)C[C@]13CCN(CC4CC4)[C@H](Cc4ccc(O)cc41)[C@]3(O)C2 [Compound 68, (6R,6aS,11aR)-14-(cyclopropylmethyl)-2,6a-dihydroxy-9-phenyl-6,6a,7,9,10,11-hexahydro-6,11a-(epiminoethano)naphtho[2,1-f]indazol-8(5H)-one]",1.4 nM,100%,,,,
"Cc1nn(-c2nccs2)c2c1C[C@@]1(O)[C@H]3Cc4ccc(O)cc4[C@@]1(CCN3CC1CC1)C2 [Compound 51, (6R,6aS,11aR)-14-(cyclopropylmethyl)-8-methyl-10-(thiazol-2-yl)-5,6,10,11-tetrahydro-6,11a-(epiminoethano)naphtho[2,1-f]indazole-2,6a(7H)-diol]",0.94 nM,54%,,,,
"Cc1c2c(nn1CC1CC1)C[C@]13CCN(CC4CC4)[C@H](Cc4ccc(O)cc41)[C@]3(O)C2 [Compound 46, (6R,6aS,11aR)-9,14-bis(cyclopropylmethyl)-8-methyl-5,6,9,11-tetrahydro-6,11a-(epiminoethano)naphtho[2,1-f]indazole-2,6a(7H)-diol]",0.17 nM,105%,,,,
"Cc1nn(-c2ccccn2)c2c1C[C@@]1(O)[C@H]3Cc4ccc(O)cc4[C@@]1(CCN3CC1CC1)C2 [Compound 27, (6R,6aS,11aR)-14-(cyclopropylmethyl)-8-methyl-10-(pyridin-2-yl)-5,6,10,11-tetrahydro-6,11a-(epiminoethano)naphtho[2,1-f]indazole-2,6a(7H)-diol]",0.83 nM,51%,,,,
"Cc1nn(C2CCC2)c2c1C[C@@]1(O)[C@H]3Cc4ccc(O)cc4[C@@]1(CCN3CC1CC1)C2 [Compound 84, (6R,6aS,11aR)-10-cyclobutyl-14-(cyclopropylmethyl)-8-methyl-5,6,10,11-tetrahydro-6,11a-(epiminoethano)naphtho[2,1-f]indazole-2,6a(7H)-diol]",0.34 nM,95%,,,,
"Cc1nn(C2CC2)c2c1C[C@@]1(O)[C@H]3Cc4ccc(O)cc4[C@@]1(CCN3CC1CC1)C2 [Compound 82, (6R,6aS,11aR)-10-cyclopropyl-14-(cyclopropylmethyl)-8-methyl-5,6,10,11-tetrahydro-6,11a-(epiminoethano)naphtho[2,1-f]indazole-2,6a(7H)-diol]",0.93 nM,39%,,,,
"Cc1c2c(nn1C1CCCCC1)C[C@]13CCN(CC4CC4)[C@H](Cc4ccc(O)cc41)[C@]3(O)C2 [Compound 33, (6R,6aS,11aR)-9-cyclohexyl-14-(cyclopropylmethyl)-8-methyl-5,6,9,11-tetrahydro-6,11a-(epiminoethano)naphtho[2,1-f]indazole-2,6a(7H)-diol]",0.14 nM,108%,44 nM,13%,,
"Cc1[nH]nc2c1C[C@@]1(O)[C@H]3Cc4ccc(O)cc4[C@@]1(CCN3CC1CC1)C2 [34, 35]",1.3 nM,42%,,,,
"Cc1nn(C2CCCC2)c2c1C[C@@]1(O)[C@H]3Cc4ccc(O)cc4[C@@]1(CCN3CC1CC1)C2 [Compound 86, (6R,6aS,11aR)-10-cyclopentyl-14-(cyclopropylmethyl)-8-methyl-5,6,10,11-tetrahydro-6,11a-(epiminoethano)naphtho[2,1-f]indazole-2,6a(7H)-diol]",0.12 nM,101%,,,,
